Activity calls are given as the source filed them. The calls are words filed in the database; no cut-off is given here.
Tests used:
COLO 205 = test: Antiproliferative activity against human COLO205 cells after 96 hrs by celltiter assay; type: functional, cell-based; conditions: COLO 205, 96 h
Histone deacetylase 1 = Histone deacetylase 1 (Homo sapiens, UniProt Q13547)
Description: Inhibition of recombinant HDAC1 by fluorimetric assay

in vitro [1] = conditions: human, liver microsomes
in vitro [2] = conditions: mouse, liver microsomes
Description: (§1) Metabolic stability in mouse liver microsomes assessed as half life

PC-3 = test: Antiproliferative activity against human PC3 cells after 96 hrs by celltiter assay; type: functional, cell-based; conditions: PC-3, 96 h
A2780 = test: Antiproliferative activity against human A2780 cells after 96 hrs by celltiter assay; type: functional, cell-based; conditions: A2780, 96 h
HCT-116 [3] = test: Antiproliferative activity against human HCT116 cells after 96 hrs by celltiter assay; type: functional, cell-based; conditions: HCT-116, 96 h
Mus musculus [4] = test: Toxicity in athymic mouse xenografted with human HCT116 cells at 100 mg/kg, ip qd for 21 days measured on day 12; type: organism-based, HCT-116; parameters: dose 100 mg/kg, route intraperitoneal; conditions: in vivo, 504 h
HCT-116 [5] = test: Antitumor activity against human HCT116 cells xenografted in athymic mouse assessed as tumor growth inhibition at 100 mg/kg, ip qd for 21 days measured on day 11; type: functional; conditions: HCT-116, ip, route intraperitoneal, read-out: TGI
HCT-116 [6] = test: Antitumor activity against human HCT116 cells xenografted in athymic mouse assessed as tumor growth inhibition at 75 mg/kg, ip qd for 21 days measured on day 21; type: functional; conditions: HCT-116, ip, 504 h, route intraperitoneal, read-out: TGI
[7] = Toxicity in ip dosed athymic mouse assessed as maximum tolerated dose; type: organism-based; conditions: in vivo
[8] = mouse, microsomes
Description: as §1

HCT-116 [9] = test: Antitumor activity against human HCT116 cells xenografted in athymic mouse assessed as tumor growth inhibition at 50 mg/kg, ip qd for 21 days measured on day 21; type: functional; conditions: HCT-116, ip, 504 h, route intraperitoneal, read-out: TGI
HCT-116 [10] = test: Antitumor activity against human HCT116 cells xenografted in athymic mouse assessed as tumor growth inhibition at 60 mg/kg, ip qd for 21 days measured on day 22; type: functional; conditions: HCT-116, ip, route intraperitoneal, read-out: TGI
Mus musculus [11] = test: Induction of histone H3 hyperacetylation in human HCT116 cells xenografted athymic mouse; type: functional, organism-based; conditions: HCT-116
HCT-116 [12] = test: Induction of histone H3 hyperacetylation in human HCT116 cells; type: functional, cell-based

Sequence of Histone deacetylase 1 (Q13547 whole entry): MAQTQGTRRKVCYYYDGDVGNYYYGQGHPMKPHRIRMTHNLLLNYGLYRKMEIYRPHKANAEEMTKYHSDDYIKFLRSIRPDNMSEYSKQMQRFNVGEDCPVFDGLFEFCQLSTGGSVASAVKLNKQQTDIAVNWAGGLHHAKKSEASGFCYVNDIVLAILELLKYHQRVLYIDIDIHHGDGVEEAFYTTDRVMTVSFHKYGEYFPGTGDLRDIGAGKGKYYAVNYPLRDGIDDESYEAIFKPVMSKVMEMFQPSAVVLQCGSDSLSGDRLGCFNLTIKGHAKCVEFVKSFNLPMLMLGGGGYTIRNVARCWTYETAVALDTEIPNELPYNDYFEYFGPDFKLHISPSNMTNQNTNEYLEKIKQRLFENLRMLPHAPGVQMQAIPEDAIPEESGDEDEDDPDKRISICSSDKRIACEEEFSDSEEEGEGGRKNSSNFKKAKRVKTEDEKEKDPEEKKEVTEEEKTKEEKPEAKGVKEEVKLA

| SMILES | IC50 (COLO 205) [nM] | IC50 (Histone deacetylase 1) [nM] | other results |
| --- | --- | --- | --- |
| O=C(/C=C/c1ccc2c(c1)nc(CCc1ccccc1)n2Cc1ccccc1)NO | 1600 | 410 |  |
| Cl.Cl.O=C(/C=C/c1ccc2c(c1)nc(CCc1ccccc1)n2CCN1CCCC1)NO |  |  | half-life (in vitro [1]): > 30 min; half-life (in vitro [2]): 2.7 min; IC50 (PC-3): 150 nM; IC50 (A2780): 190 nM; IC50 (HCT-116 [3]): 200 nM |
| O=C(/C=C/c1ccc2c(c1)nc(CCc1ccccc1)n2CCN1CCCCC1)NO | 90 | 26 | inhibition in vivo at 75 mg/kg (HCT-116 [6]): 32%; MTD [7]: 75 mg/kg |
| O=C(/C=C/c1ccc2nc(CCc3ccccc3)[nH]c2c1)NO | 4400 | 170 |  |
| CN(C)CC(C)(C)Cn1c(CCc2ccccc2)nc2cc(/C=C/C(=O)NO)ccc21.Cl.Cl |  |  | t1/2 [8]: 1 min; half-life (in vitro [1]): 12 min; IC50 (PC-3): 180 nM; IC50 (A2780): 110 nM; IC50 (HCT-116 [3]): 160 nM |
| O=C(CCCCCCC(=O)Nc1ccccc1)NO [VORINOSTAT] |  |  | MTD [7]: 200 mg/kg |
| Cn1c(CCc2ccccc2)nc2cc(C3CC3C(=O)NO)ccc21 (centres undefined) |  | 1300 |  |
| Cl.Cn1c(CCc2ccccc2)nc2cc(/C=C/C(=O)NO)ccc21 |  |  | half-life (in vitro [1]): > 30 min; half-life (in vitro [2]): 23 min; IC50 (PC-3): 890 nM; IC50 (A2780): 730 nM; IC50 (HCT-116 [3]): 1300 nM |
| Cl.Cl.O=C(/C=C/c1ccc2c(c1)nc(CCc1ccccc1)n2CCN1CCCCC1)NO |  |  | t1/2 [8]: 1.3 min; half-life (in vitro [1]): 10 min; IC50 (PC-3): 120 nM; IC50 (A2780): 31 nM; IC50 (HCT-116 [3]): 100 nM |
| CC(C)Cc1nc2cc(CCC(=O)NO)ccc2n1CCCO |  | > 10000 |  |
| CCCCCCCCc1nc2cc(/C=C/C(=O)NO)ccc2n1CCCO | 3700 |  |  |
| CC(Cc1nc2cc(/C=C/C(=O)NO)ccc2n1CCCO)c1ccccc1 (centres undefined) | 1700 | 80 |  |
| O=C(/C=C/c1ccc2c(c1)nc(C1CCCCC1)n2CCCO)NO | 31000 |  |  |
| Cn1c(CCc2ccccc2)nc2cc(/C=C/C(=O)NO)ccc21 | 1200 |  | inhibition in vivo at 50 mg/kg (HCT-116 [9]): 23%; MTD [7]: 50 mg/kg |
| O=C(NO)c1ccc2c(c1)nc(CCc1ccccc1)n2CCCO | 26000 |  |  |
| Nc1ccccc1NC(=O)/C=C/c1ccc2c(c1)nc(CCc1ccccc1)n2Cc1ccccn1 | 5100 | > 100000 |  |
| CCN(CC)CCn1c(CCc2ccccc2)nc2cc(/C=C/C(=O)NO)ccc21.Cl.Cl |  |  | half-life (in vitro [1]): 16 min; half-life (in vitro [2]): 2.8 min; IC50 (PC-3): 200 nM; IC50 (A2780): 100 nM; IC50 (HCT-116 [3]): 240 nM |
| O=C(/C=C/c1ccc2c(c1)nc(-c1ccsc1)n2CCCO)NO | 31000 |  |  |
| CCN(CC)CCn1c(CCc2ccccc2)nc2cc(/C=C/C(=O)NO)ccc21 | 220 | 52 | MTD [7]: 60 mg/kg; inhibition in vivo at 60 mg/kg (HCT-116 [10]): 12% |
| O=C(/C=C/c1ccc2nc(CCc3ccccc3)n(Cc3ccccc3)c2c1)NO | 5400 | 1200 |  |
| CC(C)Cc1nc2cc(/C=C/C(=O)NO)ccc2n1CCCO | 26000 | 100 |  |
| COc1cc(Cn2c(CCc3ccccc3)nc3cc(CCC(=O)NO)ccc32)cc(OC)c1OC | 2400 |  |  |
| O=C(/C=C/c1ccc2c(c1)nc(COCc1ccccc1)n2CCCO)NO | 4100 |  |  |
| COc1cc(Cn2c(CCc3ccccc3)nc3cc(/C=C/C(=O)NO)ccc32)cc(OC)c1OC | 320 | 47 |  |
| O=C(/C=C/c1ccc2c(c1)nc(CCc1ccccc1)n2CCN1CCCC1)NO |  |  | Activity (Mus musculus [11]): Active; Activity (HCT-116 [12]): Active |

The next lines start with results.

| IC50 (COLO 205) [nM] | IC50 (Histone deacetylase 1) [nM] | SMILES | other results |
| --- | --- | --- | --- |
| > 100000 |  | O=C(/C=C/c1ccc2c(c1)nc(CCc1ccccc1)n2CCCn1ccnc1)NO |  |
| 2200 |  | COCCCn1c(CCc2ccccc2)nc2cc(/C=C/C(=O)NO)ccc21 |  |
| 120 | 41 | CN(C)CC(C)(C)Cn1c(CCc2ccccc2)nc2cc(/C=C/C(=O)NO)ccc21 | Activity (Mus musculus [4]): Toxic; inhibition in vivo at 100 mg/kg (HCT-116 [5]): 60% |
| 880 | 250 | O=C(/C=C/c1ccc2c(c1)nc(CCc1ccccc1)n2Cc1ccccn1)NO |  |
| 1500 |  | CCn1c(CCc2ccccc2)nc2cc(/C=C/C(=O)NO)ccc21 |  |
| 3200 |  | O=C(/C=C/c1ccc2c(c1)nc(CCc1ccccc1)n2CCCO)NO |  |
| 610 | 310 | O=C(/C=C/c1ccc2c(c1)nc(CCc1ccccc1)n2CCCN1CCCC1)NO |  |
| 1100 | 160 | CN(C)CCCCn1c(CCc2ccccc2)nc2cc(/C=C/C(=O)NO)ccc21 |  |
| 2300 | 170 | CCCn1c(CCc2ccccc2)nc2cc(/C=C/C(=O)NO)ccc21 |  |
| 2000 | 190 | CN(C)CCCn1c(CCc2ccccc2)nc2cc(/C=C/C(=O)NO)ccc21 |  |
| 1900 |  | O=C(/C=C/c1ccc2c(c1)nc(CCc1ccccc1)n2CCCN1CCOCC1)NO |  |
| 8800 |  | O=C(/C=C/c1ccc2c(c1)nc(CCc1ccccc1)n2CCc1ccccc1)NO |  |
| 11000 |  | O=C(/C=C/c1ccc2c(c1)nc(CCc1ccccc1)n2CCCN1CCCC1=O)NO |  |
| 2800 |  | O=C(/C=C/c1ccc2c(c1)nc(CCc1ccccc1)n2CCN1CCOCC1)NO |  |
|  | 2300 | O=C(O)CCn1c(CCc2ccccc2)nc2cc(/C=C/C(=O)NO)ccc21 |  |
